Test results reported in patent publication US11596150B2, “Long chain glycolipids useful to avoid perishing or microbial contamination of materials” (IMD NATURAL SOLUTIONS GMBH, priority 2011, dated 2023).
Converted amounts (≈) assume the structure as drawn. Like-named read-outs stand apart in the source and are kept apart here.

Assays:
Type in all cases: cell-based
[1] = system: Bacillus subtilis (ATCC6633); test: MIC determination in microtiter plates (non-pathogenic microorganisms); settings: 48 h, read-out: MIC values after 48 h
[2] = system: Corynebacterium variabile (DSM20132); test: as above; settings: 48 h, read-out: MIC values after 48 h
[3] = system: Lactobacillus plantarum (DSM 12028); test: as above; settings: Lactiplantibacillus plantarum; Lactobacillus plantarum (DSM12028); 48 h; read-out: MIC values after 48 h
[4] = system: Aspergillus niger (ATCC 16404); test: as above; settings: Aspergillus niger (ATCC16404); 48 h; read-out: MIC values after 48 h
[5] = system: Mucor plumbeus (MUCL49355); test: as above
[6] = system: Dekkera bruxellensis (DSM70726); test: as above; settings: Brettanomyces bruxellensis, 48 h, read-out: MIC values after 48 h
[7] = system: Dekkera naardenensis (DSM70743); test: as above; settings: Brettanomyces naardenensis, 48 h, read-out: MIC values after 48 h
[8] = system: Saccharomyces cerevisiae (HT10); test: as above; settings: 48 h, read-out: MIC values after 48 h
[9] = system: Zygosaccharomyces bailii (DSM70492); test: as above; settings: 48 h, read-out: MIC values after 48 h
[10] = system: Zygosaccharomyces bisporus (DSM70415); test: as above; settings: 48 h, read-out: MIC values after 48 h
[11] = system: Zygosaccharomyces florentinus (DSM70506); test: as above; settings: Zygotorulaspora florentina, 48 h, read-out: MIC values after 48 h
[12] = system: Zygosaccharomyces rouxii (NCYC381); test: as above; settings: 48 h, read-out: MIC values after 48 h
[13] = system: Talaromyces luteus (CBS348.51); test: MIC after 48 h (Example 9); settings: Ascospirella lutea
[14] = system: Pyricularia oryzae (DSM62938); test: microbe, parasite or virus in culture; settings: DSM62938, 48 h, read-out: MIC values after 48 h
[15] = system: Byssochlamys fulva (DSM62097); test: MIC determination in microtiter plates (non-pathogenic microorganisms); settings: Paecilomyces fulvus, 48 h, read-out: MIC values after 48 h
[16] = M. plumbeus (MUCL49355), SDB medium, day not given (Table 19)
[17] = M. plumbeus (MUCL49355), SDB medium, day not printed (first line of Table 19)
[18] = Mucor plumbeus (MUCL49355), 48 h, read-out: MIC values after 48 h
[19] = M. plumbeus (MUCL49355), SDB medium, day 2
[20] = M. plumbeus (MUCL49355), SDB medium, day 7
[21] = M. plumbeus (MUCL49355), SDB medium, day 16
[22] = M. plumbeus (MUCL49355), SDB medium, day 28

SMILES	MIC [1]	MIC [2]	MIC [3]	MIC [4]	MIC [5, 16]	MIC [5, 17]	MIC [5, 18]	MIC [6]	MIC [7]	MIC [8]	MIC [9]	MIC [10]	MIC [11]	MIC [12]	MIC [13]	MIC [14]	MIC [5, 19]	MIC [5, 20]	MIC [5, 21]	MIC [5, 22]	other results
CCCCC(CCCC(O)C(O)CCCCCCCCCCCCCCC(O)C(=O)O)OC1OCC(O)C(O)C1OC1OCC(OC(C)=O)C(O)C1OC1OC(CO)C(O)C(O)C1O (stereo not shown) [[14]]	1.6 µg/mL (≈ 1.72 µM)	1.6 µg/mL (≈ 1.72 µM)	25 µg/mL (≈ 26.9 µM)	50 µg/mL (≈ 53.8 µM)	>100	50	50 µg/mL (≈ 53.8 µM)	50 µg/mL (≈ 53.8 µM)	25 µg/mL (≈ 26.9 µM)	50 µg/mL (≈ 53.8 µM)	25 µg/mL (≈ 26.9 µM)	50 µg/mL (≈ 53.8 µM)	50 µg/mL (≈ 53.8 µM)	25 µg/mL (≈ 26.9 µM)	50 µg/mL (≈ 53.8 µM)	25 µg/mL (≈ 26.9 µM)					
CCCCC(CCCC(O)C(O)CCCCCCCCCCCCCCC(O)C(=O)O)OC1OCC(O)C(O)C1OC1OCC(O)C(O)C1OC1OC(CO)C(O)C(O)C1O (stereo not shown) [[16], Glykenin DGC or Glykenin DGB]	3.1 µg/mL (≈ 3.49 µM)	1.6 µg/mL (≈ 1.8 µM)	50 µg/mL (≈ 56.4 µM)	25 µg/mL (≈ 28.2 µM)	>100	>100	> 100 µg/mL	> 100 µg/mL	50 µg/mL (≈ 56.4 µM)	> 100 µg/mL	25 µg/mL (≈ 28.2 µM)	> 100 µg/mL	> 100 µg/mL	100 µg/mL (≈ 113 µM)	50 µg/mL (≈ 56.4 µM)	25 µg/mL (≈ 28.2 µM)					MIC [15]: 6.3 µg/mL (≈ 7.1 µM)
CCCCCCC(CCCC(O)CCCCCCCCCCCCCC(O)C(=O)O)OC1OCC(O)C(O)C1OC1OCC(OC(C)=O)C(O)C1OC1OC(COC(=O)CC(C)C)C(O)C(O)C1O (stereo not shown) [[18]]					>100	25															
O=C(O)c1ccccc1 [benzoic acid, reference compound]																	1000	1000	>1000	>1000	
C/C=C/C=C/C(=O)O [sorbic acid, reference compound]																	250	500	1000	1000	
